For data set [1], the target named is Acidic mammalian chitinase (Mus musculus, UniProt Q91XA9). Briefly: Inhibition of mouse AMCase using 4-methylumbelliferyl beta-D-N,N' diacetylchitobioside hydrate as substrate measured after 60 mins by fluorometric method.
Data set [2] deals with Chitotriosidase-1 (Mus musculus, UniProt Q9D7Q1). Briefly: Inhibition of mouse CHIT1 using 4-methylumbelliferyl beta-D-N,N',N'' triacetylchitotrioside as substrate measured after 60 mins by fluorometric method.
Data set [3] is described as follows: Volume of distribution at steady state in BALB/c mouse at 3 mg/kg, iv administered as bolus dose by LC-MS/MS analysis. The format is ADME, organism-based. The settings on record: in vivo, read-out: Vdss.
A short description of data set [4]: AUC (0 to infinity) in BALB/c mouse at 10 mg/kg, po by LC-MS/MS analysis. The format is ADME, organism-based. Details: dose 10 mg/kg, time infinity, route oral. The settings on record: in vivo.
Data set [5] is described as follows: Cmax in BALB/c mouse at 3 mg/kg, iv administered as bolus dose by LC-MS/MS analysis. The following applies: in vivo. The format is ADME, organism-based. Details: dose 3 mg/kg, route intravenous.
Data set [6] in a line: Tmax in BALB/c mouse at 10 mg/kg, po by LC-MS/MS analysis. The format is ADME, organism-based. The settings on record: in vivo.
Data set [7] is described as follows: AUC (0 to infinity) in BALB/c mouse at 3 mg/kg, iv administered as bolus dose by LC-MS/MS analysis. The format is ADME, organism-based. Details: dose 3 mg/kg, route intravenous, time infinity. The following applies: in vivo.
Data set [8] can be described thus: Half-life in BALB/c mouse at 3 mg/kg, iv administered as bolus dose by LC-MS/MS analysis. The following applies: in vivo. Format: ADME, organism-based.
A short description of data set [9]: Half-life in BALB/c mouse at 10 mg/kg, po by LC-MS/MS analysis. The format is ADME, organism-based. The settings on record: in vivo.
Data set [10] can be described thus: Oral bioavailability in BALB/c mouse at 10 mg/kg by LC-MS/MS analysis. The settings on record: in vivo. The format is ADME, organism-based.
Data set [11] can be described thus: Clearance in BALB/c mouse at 3 mg/kg, iv administered as bolus dose by LC-MS/MS analysis. Format: ADME, organism-based. The settings on record: in vivo.
Data set [12] can be described thus: Cmax in BALB/c mouse at 10 mg/kg, po by LC-MS/MS analysis. The format is ADME, organism-based. Details: dose 10 mg/kg, route oral. The settings on record: in vivo.

Chain of Chitotriosidase-1 (Q9D7Q1 whole entry): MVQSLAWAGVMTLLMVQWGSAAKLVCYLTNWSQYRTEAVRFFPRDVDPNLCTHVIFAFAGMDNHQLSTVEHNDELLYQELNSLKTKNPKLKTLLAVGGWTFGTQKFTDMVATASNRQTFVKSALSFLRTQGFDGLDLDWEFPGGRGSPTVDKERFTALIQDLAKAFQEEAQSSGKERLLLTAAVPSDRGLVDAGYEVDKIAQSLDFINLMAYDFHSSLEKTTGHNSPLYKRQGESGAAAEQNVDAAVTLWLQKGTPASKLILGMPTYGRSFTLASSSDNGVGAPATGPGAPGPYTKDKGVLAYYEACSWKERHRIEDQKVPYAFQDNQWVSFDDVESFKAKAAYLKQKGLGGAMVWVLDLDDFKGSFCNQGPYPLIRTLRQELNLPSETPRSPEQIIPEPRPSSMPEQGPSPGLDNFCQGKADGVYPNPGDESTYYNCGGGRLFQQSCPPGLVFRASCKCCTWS
Chain of Acidic mammalian chitinase (Q91XA9 whole entry): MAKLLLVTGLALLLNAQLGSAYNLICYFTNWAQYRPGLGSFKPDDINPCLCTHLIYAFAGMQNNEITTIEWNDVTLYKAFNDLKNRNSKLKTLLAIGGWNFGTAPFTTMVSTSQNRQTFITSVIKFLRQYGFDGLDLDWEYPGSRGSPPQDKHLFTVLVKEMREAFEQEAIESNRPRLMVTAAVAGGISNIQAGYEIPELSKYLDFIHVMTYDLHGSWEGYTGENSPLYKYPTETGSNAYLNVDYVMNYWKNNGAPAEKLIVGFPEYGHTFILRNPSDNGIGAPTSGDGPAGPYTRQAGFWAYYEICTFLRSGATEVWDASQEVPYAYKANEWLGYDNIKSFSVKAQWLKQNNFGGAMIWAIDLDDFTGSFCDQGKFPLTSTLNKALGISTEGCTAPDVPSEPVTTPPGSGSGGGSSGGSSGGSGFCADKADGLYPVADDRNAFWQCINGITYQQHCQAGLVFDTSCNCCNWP

In general, IC50 refers to the concentration at which inhibition is half-maximal. A high value points to a need for much substance. For `Nc1nc(N2CCC(N3C[C@@H]4C[C@H](O)CN4C[C@@H]3Cc3ccc(Cl)cc3)CC2)n[nH]1`, the IC50 in data set [1] is 130 nM; in data set [2], 29 nM.

For `C[C@H]1CN(C2CCN(c3n[nH]c(N)n3)CC2)[C@@H](Cc2ccc(Cl)cc2)CN1Cc1ccc(Cl)cc1`, the IC50 in data set [1] stood at 1400 nM; in data set [2] it was 495 nM.

In the case of `C[C@H]1CN(C2CCN(c3nnc(N)[nH]3)CC2)[C@@H](Cc2ccc(Cl)cc2)CN1C`, the IC50 in data set [1] worked out at 1220 nM; in [2], 186 nM.

Regarding `CC(=O)N1C[C@H](Cc2ccc(Cl)cc2)N(C2CCN(c3nnc(N)[nH]3)CC2)C[C@@H]1C`, the IC50 in data set [1] amounted to 6020 nM; in [2] it was 4380 nM.

The term AUC(0-inf) denotes total exposure, with the tail of the curve extrapolated. In general, Cmax refers to the highest concentration seen after dosing. By Tmax is commonly meant the time at which the peak concentration occurs. As a reminder, the half-life is the time needed for the level to fall by half in the phase considered. Low values mean fast loss, high ones slow loss. In general, bioavailability refers to the share of a dose that reaches the circulation, judged against a reference dose that is usually intravenous. By clearance is commonly meant a measure of how efficiently the substance is removed, as volume per time. Low readings indicate inefficient removal, high ones efficient removal. In the case of `CC(C)CN1C[C@H](Cc2ccc(Cl)cc2)N(C2CCN(c3n[nH]c(N)n3)CC2)C[C@@H]1C`, the Vd in data set [3] stood at 4.6 L/kg. For the same compound, the values for the AUC(0-inf) in [4] and in [7] were 3570 ng·h/mL and 1750 ng·h/mL, respectively. Moreover, the IC50 in data set [1] was 4170 nM; in data set [2], 29 nM. Also, the Cmax in data set [5] came out at 1480 ng/mL; in [12], 840 ng/mL. Further, the time of peak concentration (Tmax) in data set [6] came to 0.5 h. In addition, the half-life is 2.87 h in [8] and 2.83 h in data set [9]. Besides, the bioavailability in data set [10] worked out at 61.2%. The compound further showed a clearance in [11] of 28.5 mL/min/kg.

Turning to `Nc1nc(N2CCC(N3C[C@@H]4CCCCN4C[C@@H]3Cc3ccc(Cl)cc3)CC2)n[nH]1`, the 50% inhibitory concentration (IC50) in data set [1] was 525 nM; in [2] it was 175 nM.

As for `CN1CCN(C2CCN(c3nnc(N)[nH]3)CC2)[C@@H](Cc2ccc(Cl)cc2)C1`, the IC50 in data set [1] was 7600 nM; in data set [2] it was 1590 nM.

For `C[C@H]1CN(C2CCN(c3n[nH]c(N)n3)CC2)[C@@H](Cc2ccc(Cl)cc2)CN1CC(=O)N(C)C`, the IC50 is 751 nM in data set [1] and 24 nM in data set [2].

In the case of `CN1C[C@H](Cc2ccc(Cl)cc2)N(C2CCN(c3nnc(N)[nH]3)CC2)C[C@@H]1CO`, the IC50 in data set [1] came out at 1250 nM; in data set [2], 175 nM.

In the case of `C[C@H]1CN(C2CCN(c3nnc(N)[nH]3)CC2)[C@@H](Cc2ccc(Cl)cc2)CN1S(C)(=O)=O`, the IC50 is 3720 nM in data set [1] and 1010 nM in data set [2].

`COC(=O)N1C[C@H](Cc2ccc(Cl)cc2)N(C2CCN(c3nnc(N)[nH]3)CC2)C[C@@H]1C`: the IC50 in [1] was 3750 nM; in data set [2], 461 nM.

As to `CC(C)C[C@H]1CN(C2CCN(c3n[nH]c(N)n3)CC2)[C@@H](Cc2ccc(Cl)cc2)CN1`, the IC50 worked out at 2910 nM in data set [1] and 135 nM in data set [2].

On to `CC(C)C[C@H]1CN(C2CCN(c3nnc(N)[nH]3)CC2)[C@@H](Cc2ccc(Cl)cc2)CN1C`, for which the IC50 turned out to be 936 nM in [1] and 95 nM in data set [2].

As to `Nc1nc(N2CCC(N3C[C@@H]4C[C@@H](O)CN4C[C@@H]3Cc3ccc(Cl)cc3)CC2)n[nH]1`, the values for the IC50 in data set [1] and in data set [2] were 136 nM and 48 nM, respectively.

Turning to `CN1C[C@H](Cc2ccc(Cl)cc2)N(C2CCN(c3nnc(N)[nH]3)CC2)C[C@@H]1CC1CCCCC1`, the values for the half-maximal inhibitory concentration (IC50) in data set [1] and in data set [2] were 640 nM and 128 nM, respectively.

For `CC(C)C[C@H]1CN(C2CCN(c3n[nH]c(N)n3)CC2)[C@@H](Cc2ccc(Cl)cc2)CN1CC(C)C`, the IC50 is 5700 nM in [1] and 41 nM in data set [2].

Take `COC(=O)CN1C[C@H](Cc2ccc(Cl)cc2)N(C2CCN(c3n[nH]c(N)n3)CC2)C[C@@H]1C`: the figures for the IC50 in data set [1] and in [2] were 231 nM and 29 nM, respectively.

For `C[C@H]1CN(C2CCN(c3nnc(N)[nH]3)CC2)[C@@H](Cc2ccc(Cl)cc2)CN1CC(=O)O`, the values for the IC50 in [1] and in data set [2] were 527 nM and 53 nM, respectively.

As to `Nc1nnc(N2CCC(N3C[C@@H]4CCCN4C[C@@H]3Cc3ccc(Cl)cc3)CC2)[nH]1`, the values for the IC50 in data set [1] and in data set [2] were 697 nM and 161 nM, respectively.

Take `CN1C[C@H](Cc2ccc(Cl)cc2)N(C2CCN(c3nnc(N)[nH]3)CC2)C[C@@H]1Cc1ccc(Cl)cc1`: the IC50 in data set [1] is 518 nM; in data set [2] it was 103 nM.

(Values after ChEMBL document CHEMBL4184114, “Discovery of selective, orally bioavailable inhibitor of mouse chitotriosidase” (Bioorg Med Chem Lett, 2018).)
